These results are taken from patent US20260256751A1, “COMBINATION OF BETA-2-ADRENERGIC RECEPTOR AGONISTS AND GLP-1 RECEPTOR AGONISTS FOR USE IN TREATING HYPERGLYCAEMIA” (ATROGI AB, priority 2023, published 2026).

Test [1] relates to differentiated L6-myotubes. The experiment in a line: Glucose uptake screen (Biological example 1 of WO 2019/053427). The format is cell-based. As to conditions: compound at 10 μM, activity relative to isoproterenol at 10 μM, read-out: Biological example 1 of WO 2019/053427 (GU). The gist of the method: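 Uptake was read out as ^3H-2-deoxyglucose (50 nM, 10 min) radioactivity in NaOH lysates. Beforehand, overnight-starved, differentiated L6 myotubes received compound at 1×10^−5 M with ICI-118551 present for 1 h 40 min, followed by fresh agonist for a further 20 min in glucose-free medium.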

For test [2], the system named is differentiated L6-myotubes. In words: cAMP production relative to isoprenaline (Biological example 2 of WO 2019/053427). It counts as cell-based. As to conditions: 0.25 h, compound at 10 μM, activity relative to isoproterenol at 10 μM. The gist of the method: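 Values are cAMP levels relative to isoprenaline at equal concentration (final 1×10^−5 M for both). Stimulation lasted 15 min in differentiated L6 myotubes, using HBSS buffer (pH 7.4) containing 1 mM IBMX, 5 mM HEPES and 1% BSA.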
On the technique in general: Cyclic AMP is a second messenger, typically raised through Gs and lowered through Gi signalling.

Bounds are passed on as bounds.

As for `CC1(C)CCC[C@H]([C@@H](O)c2cccc(O)c2)N1` [Compound 103, (S)-[(R)-6,6-dimethyl-2-piperidyl](m-hydroxyphenyl)methanol], the Emax at 10 µM in test [1] is 25 to 50%; in test [2], below 25%.

In the case of `CC1(C)CCC[C@H]([C@H](O)c2cccc(O)c2)N1` [Compound 104, (R)-[(R)-6,6-dimethyl-2-piperidyl](m-hydroxyphenyl)methanol], the values for the Emax at 10 µM in test [1] and in test [2] were 25 to 50% and below 25%, respectively.

With `CCC[C@H]1CCC[C@H]([C@@H](O)c2ccc(F)cc2)N1` [Compound 105, (S)-[(2R,6S)-6-propyl-2-piperidyl](p-fluorophenyl)methanol], the values for the Emax at 10 µM in test [1] and in test [2] were 25 to 50% and below 25%, respectively.

Turning to `CCC[C@H]1CCC[C@H]([C@@H](O)c2ccccc2F)N1` [Compound 106, (S)-[(2R,6S)-6-propyl-2-piperidyl](o-fluorophenyl)methanol], the Emax at 10 µM was 25 to 50% in test [1] and below 25% in test [2].

As for `CCC[C@@H]1CCC[C@H]([C@@H](O)c2ccccc2F)N1` [Compound 107, (S)-[(2R,6R)-6-propyl-2-piperidyl](o-fluorophenyl)methanol], the Emax at 10 µM in test [1] is 25 to 50%; in test [2], below 25%.

As to `CC(C)(C)NC[C@H](O)c1ccncc1F` [Compound 108, (R)-2-(tert-butylamino)-1-(3-fluoro-4-pyridyl)-1-ethanol], the Emax at 10 µM in test [1] is 25 to 50%; in test [2], below 25%.

Turning to `CC1(C)CC[C@H]([C@@H](O)c2cccc(F)c2)N1` [Compound 109, (S)-[(R)-5,5-dimethyl-2-pyrrolidinyl](m-fluorophenyl)methanol], the Emax at 10 µM in test [1] was 25 to 50%; in test [2], below 25%.

Turning to `CC1(C)CC[C@H]([C@H](O)c2cccc(F)c2)N1` [Compound 110, (R)-[(R)-5,5-dimethyl-2-pyrrolidinyl](m-fluorophenyl)methanol], the Emax at 10 µM in test [1] is above 75%; in test [2] it was below 25%.

`CC1(C)CC[C@H]([C@@H](O)c2cccc(O)c2)N1` [Compound 111, m-{(S)-[(R)-5,5-dimethyl-2-pyrrolidinyl]hydroxymeth-yl}phenol]: the figures for the Emax at 10 µM in test [1] and in test [2] were 50 to 75% and below 25%, respectively.

Consider `CC1(C)CC[C@H]([C@H](O)c2cccc(O)c2)N1` [Compound 112, m-{(R)-[(R)-5,5-dimethyl-2-pyrrolidinyl]hydroxymeth-yl}phenol], for which the Emax at 10 µM in test [1] is above 75%; in test [2], below 25%.

On to `CCC[C@@H]1CCC[C@@H]([C@@H](O)c2cccc(O)c2)N1` [Compound 113, (S)-[(2S,6R)-6-propyl-2-piperidyl](m-hydroxyphenyl)methanol], for which the figures for the Emax at 10 µM in test [1] and in test [2] were 50 to 75% and below 25%, respectively.

For `CCC[C@@H]1CCC[C@@H]([C@@H](O)c2cccc(Cl)c2)N1` [Compound 114, (S)-[(2S,6R)-6-propyl-2-piperidyl](m-chlorophenyl)methanol], the Emax at 10 µM was 25 to 50% in test [1] and below 25% in test [2].

Consider `CCC[C@@H]1CCC[C@@H]([C@H](O)c2cccc(Cl)c2)N1` [Compound 115, (R)-[(2S,6R)-6-propyl-2-piperidyl](m-chlorophenyl)methanol], for which the Emax at 10 µM is above 75% in test [1] and below 25% in test [2].

For the molecule `CCC[C@@H]1CCC[C@@H]([C@H](O)c2cccc(F)c2)N1` [Compound 116, (R)-[(2S,6R)-6-propyl-2-piperidyl](m-fluorophenyl)methanol], the Emax at 10 µM in test [1] was 25 to 50%; in test [2], below 25%.

On to `CC(C)(C)CNC[C@H](O)c1cccc(F)c1` [Compound 117, (R)-1-(m-flurophenyl)-2-(neopentylamino)-1-ethanol], for which the Emax at 10 µM was 25 to 50% in test [1] and below 25% in test [2].

Regarding `O[C@@H](CNC1(C(F)(F)F)CC1)c1cccc(F)c1` [Compound 118, (R)-1-(m-fluorophenyl)-2-[1-(trifluoromethyl)cyclopro-pylamino]-1-ethanol], the Emax at 10 µM in test [1] is 50 to 75%; in test [2], below 25%.

With `CCC[C@H]1CCC[C@@H]([C@@H](O)c2cccc(F)c2)N1` [Compound 119, (S)-[(2S,6S)-6-propyl-2-piperidyl](m-fluorophenyl)methanol], the Emax at 10 µM was 25 to 50% in test [1] and below 25% in test [2].

In the case of `CCC[C@H]1CCC[C@@H]([C@H](O)c2cccc(F)c2)N1` [Compound 120, (R)-[(2S,6S)-6-propyl-2-piperidyl](m-fluorophenyl)methanol], the figures for the Emax at 10 µM in test [1] and in test [2] were 50 to 75% and below 25%, respectively.

As to `CCC[C@H]1CCC[C@@H]([C@@H](O)c2cccc(O)c2)N1` [Compound 121, (S)-[(2S,6S)-6-propyl-2-piperidyl](m-hydroxyphenyl)methanol], the results for the Emax at 10 µM in test [1] and in test [2] were above 75% and below 25%, respectively.

As to `CCC[C@H]1CCC[C@@H]([C@H](O)c2cccc(O)c2)N1` [Compound 122, (R)-[(2S,6S)-6-propyl-2-piperidyl](m-hydroxyphenyl)methanol], the Emax at 10 µM is 50 to 75% in test [1] and below 25% in test [2].

Take `CCC[C@H]1CCC[C@@H]([C@H](O)c2cccc(Cl)c2)N1` [Compound 123, (R)-[(2S,6S)-6-propyl-2-piperidyl](m-chlorophenyl)methanol]: the Emax at 10 µM was 25 to 50% in test [1] and below 25% in test [2].

Turning to `CCC[C@H]1CC[C@H]([C@H](O)c2cccc(F)c2)N1` [Compound 124, (R)-[(2R,5S)-5-propyl-2-pyrrolidinyl](m-fluorophenyl)methanol], the results for the Emax at 10 µM in test [1] and in test [2] were 50 to 75% and below 25%, respectively.

As for `CCC[C@H]1CC[C@H]([C@H](O)c2cccc(O)c2)N1` [Compound 125, m-{(R)-[(2R,5S)-5-propyl-2-pyrrolidinyl]hydroxymeth-yl}phenol], the results for the Emax at 10 µM in test [1] and in test [2] were 50 to 75% and below 25%, respectively.

With `CCC[C@@H]1CC[C@H]([C@@H](O)c2cccc(F)c2)N1` [Compound 126, (S)-[(2R,5R)-5-propyl-2-pyrrolidinyl](m-fluorophenyl)methanol], the Emax at 10 µM was 25 to 50% in test [1] and below 25% in test [2].

`CCC[C@@H]1CC[C@H]([C@@H](O)c2cccc(O)c2)N1` [Compound 127, m-{(S)-[(2R,5R)-5-propyl-2-pyrrolidinyl]hydroxymeth-yl}phenol]: the Emax at 10 µM in test [1] is 25 to 50%; in test [2], below 25%.

In the case of `CCC[C@H]1CCC[C@H]([C@H](O)c2cccc(Cl)c2)N1` [Compound 128, (R)-[(2R,6S)-6-propyl-2-piperidyl](m-chlorophenyl)methanol], the Emax at 10 µM in test [1] is 25 to 50%; in test [2] it was below 25%.

Consider `CCC[C@H]1CCC[C@H]([C@@H](O)c2cccc(Cl)c2)N1` [Compound 129, (S)-[(2R,6S)-6-propyl-2-piperidyl](m-chlorophenyl)methanol], for which the Emax at 10 µM was 25 to 50% in test [1] and below 25% in test [2].

In the case of `CCC[C@H]1CC[C@@H]([C@H](O)c2cccc(F)c2)N1` [Compound 130], the Emax at 10 µM is 25 to 50% in test [1] and below 25% in test [2].
